In US20250073138A1, “Lipid-based nanoparticles for enhancing percutaneous absorption and manufacturing method thereof” (COSMECCA KOREA CO., LTD., priority 2023, published 2025):

Tested on: HaCaT, a human keratinocyte cell line
Experiment: Live/dead fluorescence staining cytotoxicity
Format: cell-based
Settings: treated at different concentrations for 24 h, calcein-AM / ethidium homodimer
Experimental: First, HaCaT, a human keratinocyte cell line, was treated with tannic acid, TAMA, and TAMA-introduced nanoparticles (TANV) at different concentrations for 24 h. Thereafter, calcein-acetoxymethyl ester (calcein-AM), which stains viable cells, and ethidium homodimer, which stains dead cells, were treated simultaneously, and then washed twice with the PBS buffer solution to obtain images of viable and dead cells through fluorescence microscopy.

Row | Compound | cytotoxicity (live/dead assay)
1 | O=C(OC[C@H]1O[C@@H](OC(=O)c2cc(O)c(O)c(OC(=O)c3cc(O)c(O)c(O)c3)c2)[C@H](OC(=O)c2cc(O)c(O)c(OC(=O)c3cc(O)c(O)c(O)c3)c2)[C@@H](OC(=O)c2cc(O)c(O)c(OC(=O)c3cc(O)c(O)c(O)c3)c2)[C@@H]1OC(=O)c1cc(O)c(O)c(OC(=O)c2cc(O)c(O)c(O)c2)c1)c1cc(O)c(O)c(OC(=O)c2cc(O)c(O)c(O)c2)c1 [tannic acid] | cytotoxicity and death occurred significantly
2 | tannic acid-maleimide [TAMA] | a slight level of cytotoxicity
